The values that follow come from patent publication US11447505B1, “Pyrrolo[2,3-b]pyridine compounds and their use in the treatment of cancer” (priority 2017, dated 2022).

The target of one assay is ROCK2 (Homo sapiens (Human), UniProt O75116). Description: ROCK2 kinase assay (IMAP fluorescence polarization). Format: biochemical. To be noted: 1 μM ATP; read-out: ROCK2 Average Ki.
The target in another assay is MRCKα (Homo sapiens (Human), UniProt Q5VT25). Description: MRCKα kinase assay (IMAP fluorescence polarization). In kind it is biochemical. To be noted: 1 μM ATP; read-out: MRCK-a Average Ki. The source says: (§1) MRCKα, MRCKβ, ROCK1 and ROCK2 Kinase Assays
Sequence of MRCKα (Q5VT25 whole entry): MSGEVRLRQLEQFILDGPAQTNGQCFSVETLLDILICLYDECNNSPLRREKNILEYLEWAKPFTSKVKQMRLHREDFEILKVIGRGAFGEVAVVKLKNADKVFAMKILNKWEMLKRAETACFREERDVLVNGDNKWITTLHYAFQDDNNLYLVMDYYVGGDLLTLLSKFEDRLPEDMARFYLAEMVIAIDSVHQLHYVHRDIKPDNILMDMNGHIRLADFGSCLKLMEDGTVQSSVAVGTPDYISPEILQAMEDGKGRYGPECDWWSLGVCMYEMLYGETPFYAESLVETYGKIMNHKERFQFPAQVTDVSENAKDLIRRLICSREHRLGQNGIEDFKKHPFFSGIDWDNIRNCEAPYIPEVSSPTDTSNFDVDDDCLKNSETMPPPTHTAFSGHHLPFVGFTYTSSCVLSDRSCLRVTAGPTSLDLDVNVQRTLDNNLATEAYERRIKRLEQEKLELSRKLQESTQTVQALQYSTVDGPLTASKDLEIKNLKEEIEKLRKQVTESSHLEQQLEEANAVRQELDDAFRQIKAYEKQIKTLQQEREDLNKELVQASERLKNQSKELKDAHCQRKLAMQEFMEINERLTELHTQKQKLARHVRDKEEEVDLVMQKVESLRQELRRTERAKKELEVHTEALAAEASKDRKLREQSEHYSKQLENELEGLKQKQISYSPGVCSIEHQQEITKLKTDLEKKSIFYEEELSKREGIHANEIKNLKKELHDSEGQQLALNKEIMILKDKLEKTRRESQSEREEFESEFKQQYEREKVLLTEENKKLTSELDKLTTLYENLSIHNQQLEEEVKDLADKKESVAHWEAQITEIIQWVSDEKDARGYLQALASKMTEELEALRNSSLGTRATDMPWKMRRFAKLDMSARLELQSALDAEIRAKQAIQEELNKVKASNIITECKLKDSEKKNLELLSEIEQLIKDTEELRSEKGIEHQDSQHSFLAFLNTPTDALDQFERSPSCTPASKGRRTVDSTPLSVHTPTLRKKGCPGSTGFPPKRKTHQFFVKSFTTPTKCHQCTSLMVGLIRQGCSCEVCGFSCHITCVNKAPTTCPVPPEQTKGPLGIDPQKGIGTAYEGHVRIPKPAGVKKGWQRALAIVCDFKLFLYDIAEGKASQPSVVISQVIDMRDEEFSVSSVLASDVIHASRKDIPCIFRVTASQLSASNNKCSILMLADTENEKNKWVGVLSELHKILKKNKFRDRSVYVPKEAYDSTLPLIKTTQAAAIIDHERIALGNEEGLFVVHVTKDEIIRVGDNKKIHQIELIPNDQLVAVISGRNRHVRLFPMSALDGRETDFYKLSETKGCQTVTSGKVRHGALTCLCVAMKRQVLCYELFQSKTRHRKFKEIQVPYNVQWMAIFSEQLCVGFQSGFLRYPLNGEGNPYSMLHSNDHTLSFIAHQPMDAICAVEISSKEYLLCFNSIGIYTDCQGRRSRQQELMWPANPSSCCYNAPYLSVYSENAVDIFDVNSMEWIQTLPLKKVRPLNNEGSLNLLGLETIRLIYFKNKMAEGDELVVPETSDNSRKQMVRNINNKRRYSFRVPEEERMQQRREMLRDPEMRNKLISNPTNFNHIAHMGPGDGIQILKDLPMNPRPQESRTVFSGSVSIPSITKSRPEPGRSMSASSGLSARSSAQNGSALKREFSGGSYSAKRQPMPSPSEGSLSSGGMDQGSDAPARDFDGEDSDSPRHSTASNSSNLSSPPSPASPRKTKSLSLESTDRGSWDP
In general terms: Fluorescence polarisation rises when a labelled molecule tumbles more slowly, as on binding a larger partner.

Another assay has as its target MRCKβ (Homo sapiens (Human), UniProt Q9Y5S2). The assay can be described thus: MRCKβ kinase assay (IMAP fluorescence polarization). Format: biochemical. The note with it: 1 μM ATP; read-out: MRCK-B Average Ki.
Source text: as §1

The target of a further assay is ROCK1 (Homo sapiens (Human), UniProt Q13464). To be noted: read-out: ROCK1 Average Ki; 1 μM ATP.
Sequence of ROCK1 (Q13464 2-1354 limits assumed): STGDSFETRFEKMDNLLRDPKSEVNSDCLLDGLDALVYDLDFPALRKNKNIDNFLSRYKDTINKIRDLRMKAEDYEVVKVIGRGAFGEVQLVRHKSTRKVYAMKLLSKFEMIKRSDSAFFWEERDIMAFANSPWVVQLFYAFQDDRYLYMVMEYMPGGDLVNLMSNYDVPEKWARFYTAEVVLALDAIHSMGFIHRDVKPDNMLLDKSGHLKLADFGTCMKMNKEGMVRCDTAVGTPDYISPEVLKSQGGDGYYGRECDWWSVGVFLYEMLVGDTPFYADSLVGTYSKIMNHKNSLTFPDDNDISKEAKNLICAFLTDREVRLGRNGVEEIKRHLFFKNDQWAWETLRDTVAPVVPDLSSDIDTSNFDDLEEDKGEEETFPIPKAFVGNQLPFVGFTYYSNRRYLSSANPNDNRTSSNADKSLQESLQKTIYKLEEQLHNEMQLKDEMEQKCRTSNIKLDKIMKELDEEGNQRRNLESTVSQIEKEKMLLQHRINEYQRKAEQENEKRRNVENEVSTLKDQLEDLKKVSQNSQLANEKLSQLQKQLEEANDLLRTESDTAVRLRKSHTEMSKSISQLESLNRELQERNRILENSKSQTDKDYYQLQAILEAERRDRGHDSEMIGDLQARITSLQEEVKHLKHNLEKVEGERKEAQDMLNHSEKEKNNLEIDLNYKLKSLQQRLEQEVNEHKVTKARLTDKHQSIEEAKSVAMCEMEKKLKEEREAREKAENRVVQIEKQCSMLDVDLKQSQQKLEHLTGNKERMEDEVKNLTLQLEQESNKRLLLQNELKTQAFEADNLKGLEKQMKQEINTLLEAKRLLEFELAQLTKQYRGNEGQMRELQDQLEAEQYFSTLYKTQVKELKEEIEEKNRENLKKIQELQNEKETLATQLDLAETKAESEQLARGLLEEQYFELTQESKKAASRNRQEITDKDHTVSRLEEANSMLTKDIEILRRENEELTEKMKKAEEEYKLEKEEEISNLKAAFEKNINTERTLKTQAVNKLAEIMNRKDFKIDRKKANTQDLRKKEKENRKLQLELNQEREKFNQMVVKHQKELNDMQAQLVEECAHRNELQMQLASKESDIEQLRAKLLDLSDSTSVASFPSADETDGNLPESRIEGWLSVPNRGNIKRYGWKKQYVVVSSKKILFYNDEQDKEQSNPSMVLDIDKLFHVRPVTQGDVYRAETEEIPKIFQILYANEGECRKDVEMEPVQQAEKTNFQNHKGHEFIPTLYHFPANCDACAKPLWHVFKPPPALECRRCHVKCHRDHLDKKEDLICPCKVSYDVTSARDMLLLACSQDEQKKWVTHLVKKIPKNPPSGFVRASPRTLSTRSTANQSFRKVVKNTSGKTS

Sequence of ROCK2 (O75116 whole entry): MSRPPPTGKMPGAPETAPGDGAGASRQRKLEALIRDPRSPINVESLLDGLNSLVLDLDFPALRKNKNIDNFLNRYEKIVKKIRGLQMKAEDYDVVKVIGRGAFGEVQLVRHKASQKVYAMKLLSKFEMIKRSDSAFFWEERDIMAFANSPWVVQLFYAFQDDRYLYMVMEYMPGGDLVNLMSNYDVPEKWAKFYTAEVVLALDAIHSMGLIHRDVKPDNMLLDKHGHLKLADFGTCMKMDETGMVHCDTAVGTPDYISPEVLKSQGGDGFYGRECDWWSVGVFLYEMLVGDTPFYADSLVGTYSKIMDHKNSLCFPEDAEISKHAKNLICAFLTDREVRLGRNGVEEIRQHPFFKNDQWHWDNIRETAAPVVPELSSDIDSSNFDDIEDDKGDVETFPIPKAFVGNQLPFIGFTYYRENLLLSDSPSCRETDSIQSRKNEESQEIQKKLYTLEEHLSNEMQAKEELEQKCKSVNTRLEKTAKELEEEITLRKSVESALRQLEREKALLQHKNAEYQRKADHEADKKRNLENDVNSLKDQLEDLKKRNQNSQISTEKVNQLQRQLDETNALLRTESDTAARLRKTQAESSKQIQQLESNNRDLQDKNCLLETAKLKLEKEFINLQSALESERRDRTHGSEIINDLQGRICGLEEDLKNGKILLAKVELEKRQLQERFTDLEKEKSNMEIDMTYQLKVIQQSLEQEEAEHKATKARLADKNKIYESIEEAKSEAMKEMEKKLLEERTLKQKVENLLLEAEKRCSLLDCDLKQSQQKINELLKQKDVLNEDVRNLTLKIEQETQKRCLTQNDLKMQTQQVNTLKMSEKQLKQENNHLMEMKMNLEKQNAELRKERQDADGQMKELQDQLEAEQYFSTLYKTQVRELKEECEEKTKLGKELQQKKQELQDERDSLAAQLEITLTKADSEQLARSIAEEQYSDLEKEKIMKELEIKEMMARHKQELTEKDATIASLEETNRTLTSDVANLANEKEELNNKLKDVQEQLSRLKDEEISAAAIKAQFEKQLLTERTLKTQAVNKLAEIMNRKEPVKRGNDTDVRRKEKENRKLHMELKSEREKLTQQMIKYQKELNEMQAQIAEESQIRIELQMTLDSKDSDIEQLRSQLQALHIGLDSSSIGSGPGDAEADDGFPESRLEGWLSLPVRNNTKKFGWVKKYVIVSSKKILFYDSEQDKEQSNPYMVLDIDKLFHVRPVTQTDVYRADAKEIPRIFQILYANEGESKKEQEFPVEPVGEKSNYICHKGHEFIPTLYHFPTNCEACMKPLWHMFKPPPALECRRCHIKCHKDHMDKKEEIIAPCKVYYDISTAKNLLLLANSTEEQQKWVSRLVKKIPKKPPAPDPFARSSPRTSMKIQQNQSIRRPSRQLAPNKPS
Method for ROCK2: MRCKα, MRCKβ, ROCK1 and ROCK2 assays were performed using an IMAP fluorescence polarization assay format (Molecular Devices Inc.). 8-12 nM of each kinase (Life Technologies) was incubated for 60 min at room temperature with 100 nM FAM-S6-ribosomal protein derived peptide (synthesized by Alta Biosciences, University of Birmingham UK) in the presence of 1 μM ATP and 0.5 mM MgCl2 in 20 mM Tris buffer (pH 7.4) containing 0.01% Tween-20 and 1 mM DTT (MRCKα and β); or 1 μM ATP, 10 mM MgCl2 in 20 mM Tris buffer (pH 7.5) containing 0.25 mM EGTA 0.01% Triton X-100 and 1 mM DTT (ROCK1 and ROCK2). Typically, dose response analyses were performed over concentration ranges from 0.005-100 μM. Reactions were stopped by adding 2 assay volumes of 0.25% (v/v) IMAP binding reagent in 1×IMAP binding buffer A (Molecular Devices). After 30 min incubation to allow binding reagent to bind phosphorylated peptide, fluorescence polarization was measured on a Tecan Saphire^2 plate reader at excitation (470 nm) and emission (530 nm) wavelengths.

In general, Ki refers to the dissociation constant of the complex between target and ligand, obtained from inhibition or displacement. As for `c1ncc(-c2c[nH]c3nccc(N4CCCCC4)c23)cn1` [Example E20, 4-(1-piperidyl)-3-pyrimidin-5-yl-1H-pyrrolo[2,3-b]pyridine], the Ki was found to be 516 nM at ROCK2, 14.2 nM on MRCKα and 40.7 nM at MRCKβ.
Consider `c1ncc(-c2c[nH]c3nccc(NC4CCNCC4)c23)cn1` [Example E89, N-(4-piperidyl)-3-pyrimidin-5-yl-1H-pyrrolo[2,3-b]pyridin-4-amine], for which the figures for the inhibition constant (Ki) on ROCK2, on ROCK1 and at MRCKβ were 92.7 nM, 109 nM and 20.5 nM, respectively.
The like results for `CNCC1CCCN(c2ccnc3[nH]cc(-c4cncnc4)c23)C1` (stereo not drawn) [Example E90, N-methyl-1-[1-(3-pyrimidin-5-yl-1H-pyrrolo[2,3-b]pyridin-4-yl)-3-piperidyl]methanamine] were, in that order, 217 nM, 148 nM and 6.01 nM.
The like results for `c1ncc(-c2c[nH]c3nccc(N4CCCC(N5CCNCC5)C4)c23)cn1` (stereo not drawn) [Example E91, 4-(3-piperazin-1-yl-1-piperidyl)-3-pyrimidin-5-yl-1H-pyrrolo[2,3-b]pyridine] were, in that order, 163 nM, 231 nM and 49.5 nM.
On to `FC1CCN([C@H]2CCCN(c3ccnc4[nH]cc(-c5cncnc5)c34)C2)CC1` [Example E94, 4-[(3S)-3-(4-fluoro-1-piperidyl)-1-piperidyl]-3-pyrimidin-5-yl-1H-pyrrolo[2,3-b]pyridine], for which the figures for the Ki at ROCK2, on ROCK1 and on MRCKβ were 495 nM, 913 nM and 9.33 nM, respectively.
For the compound `c1ncc(-c2c[nH]c3nccc(N4CCC[C@H](N5CCOCC5)C4)c23)cn1` [Example E96, 4-[(3S)-1-(3-pyrimidin-5-yl-1H-pyrrolo[2,3-b]pyridin-4-yl)-3-piperidyl]morpholine], the Ki on ROCK2 was 876 nM; at ROCK1, 1300 nM; at MRCKβ, 28.8 nM.
For `O[C@H]1CCCN(c2ccnc3[nH]cc(-c4cncnc4)c23)C1` [Example E101, (3S)-1-(3-pyrimidin-5-yl-1H-pyrrolo[2,3-b]pyridin-4-yl)piperidin-3-ol] the same measures were 363 nM, 567 nM and 22.5 nM.
In the case of `c1ncc(-c2c[nH]c3nccc(NCC4CCNCC4)c23)cn1` [Example E102, N-(4-piperidylmethyl)-3-pyrimidin-5-yl-1H-pyrrolo[2,3-b]pyridin-4-amine], the values for the Ki at ROCK2, at ROCK1 and at MRCKβ were 51.2 nM, 38.2 nM and 13.9 nM, respectively.
With `CN1CCCN(c2ccnc3[nH]cc(-c4cncnc4)c23)CC1` [Example E103, 4(4-methyl-1,4-diazepan-l-yl)-3-pyrimidin-5-yl-1H-pyrrolo[2,3-b]pyridine], the Ki at ROCK2 amounted to 161 nM; on ROCK1, 252 nM; at MRCKβ it was 18.7 nM.
The like results for `Cc1[nH]ncc1-c1c[nH]c2nccc(N3CCCCC3)c12` [Example E104, 3-(5-methyl-1H-pyrazol-4-yl)-4-(1-piperidyl)-1H-pyrrolo[2,3-b]pyridine] were, in that order, 198 nM, 303 nM and 222 nM.
For `NCC1CCN(c2ccnc3[nH]cc(-c4cncnc4)c23)CC1` [Example E105, [1-(3-pyrimidin-5-yl-1H-pyrrolo[2,3-b]pyridin-4-yl)-4-piperidyl]methanamine] the same measures were 9.5 nM, 10.1 nM and 1 nM.
For `N#Cc1c[nH]c2nccc(N3CCCC3Cc3ccccc3)c12` (stereo not drawn) [Example E107, 4-(2-benzylpyrrolidin-1-yl)-1H-pyrrolo[2,3-b]pyridine-3-carbonitrile] the same measures were 2820 nM, 1880 nM and 90.3 nM.
For the compound `COC[C@@H]1CCCN1c1ccnc2[nH]cc(C#N)c12` [Example E108, 4-[(2S)-2-(methoxymethyl)pyrrolidin-1-yl]-1H-pyrrolo[2,3-b]pyridine-3-carbonitrile], the results for the Ki at ROCK2, on ROCK1 and on MRCKβ were 18.8 nM, 21.8 nM and 3.89 nM, respectively.
For `N#Cc1c[nH]c2nccc(N3CCCC(c4ccccc4)C3)c12` (stereo not drawn) [Example E112, 4-(3-phenyl-1-piperidyl)-1H-pyrrolo[2,3-b]pyridine-3-carbonitrile] the same measures were 728 nM, 682 nM and 558 nM.
The like results for `N#Cc1c[nH]c2nccc(N3CCCC3c3ccccc3)c12` (stereo not drawn) [Example E113, 4-(2-phenylpyrrolidin-1-yl)-1H-pyrrolo[2,3-b]pyridine-3-carbonitrile] were, in that order, 144 nM, 388 nM and 111 nM.
The like results for `c1cc(-c2c[nH]c3nccc(N4CCCC5(CCCCN5)C4)c23)cnn1` (stereo not drawn) [Example E172, 8-(3-pyridazin-4-yl-1H-pyrrolo[2,3-b]pyridin-4-yl)-1,8-diazaspiro[5.5]undecane] were, in that order, 14.6 nM, 33.6 nM and 0.723 nM.
For the compound `c1ncc(-c2c[nH]c3nccc(N4CCC5(CCNC5)CC4)c23)cn1` [Example E190, 8-(3-pyrimidin-5-yl-1H-pyrrolo[2,3-b]pyridin-4-yl)-2,8-diazaspiro[4.5]decane], the Ki was 8.7 nM on ROCK2, 9.3 nM at ROCK1 and 0.973 nM at MRCKβ.
Turning to `c1ncc(-c2c[nH]c3nccc(N4CCC5(CCNCC5)C4)c23)cn1` [Example E191, 2-(3-pyrimidin-5-yl-1H-pyrrolo[2,3-b]pyridin-4-yl)-2,8-diazaspiro[4.5]decane], the Ki turned out to be 7.7 nM on ROCK2, 9.28 nM at ROCK1 and 2.05 nM on MRCKβ.
For `c1ncc(-c2c[nH]c3nccc(N4CCC[C@]5(CCCCN5)C4)c23)cn1` [Example E192, (6R)-8-(3-pyrimidin-5-yl-1H-pyrrolo[2,3-b]pyridin-4-yl)-1,8-diazaspiro[5.5]undecane] the same measures were 428 nM, 50500 nM and 8.33 nM.
The like results for `c1ncc(-c2c[nH]c3nccc(N4CC5CNCC5C4)c23)cn1` (stereo not drawn) [Example E199, 4-(2,3,3a,4,6,6a-hexahydro-1H-pyrrolo[3,4-c]pyrrol-5-yl)-3-pyrimidin-5-yl-1H-pyrrolo[2,3-b]pyridine] were, in that order, 199 nM, 222 nM and 6.32 nM.
For `CN1CCN(C(=O)[C@@H]2CCCN2c2ccnc3[nH]cc(C#N)c23)CC1` [Example E204, 4-[(2S)-2-(4-methylpiperazine-1-carbonyl)pyrrolidin-1-yl]-1H-pyrrolo[2,3-b]pyridine-3-carbonitrile] the same measures were 762 nM, 558 nM and 119 nM.
As for `CCN1CCCC[C@]12CCCN(c1ccnc3[nH]cc(-c4cncnc4)c13)C2` [Example E208, (6R)-1-ethyl-8-(3-pyrimidin-5-yl-1H-pyrrolo[2,3-b]pyridin-4-yl)-1,8-diazaspiro[5.5]undecane], the Ki at ROCK2 came to 396 nM; at ROCK1 it was 1210 nM; on MRCKβ, 9.73 nM.
Turning to `c1ncc(-c2c[nH]c3nccc(OC[C@H]4CCNC4)c23)cn1` [Example E215, 3-pyrimidin-5-yl-4-[[(3S)-pyrrolidin-3-yl]methoxy]-1H-pyrrolo[2,3-b]pyridine], the Ki came out at 34.7 nM at ROCK2, 47.8 nM on ROCK1 and 3.86 nM at MRCKβ.
Turning to `c1ncc(-c2c[nH]c3nccc(O[C@@H]4CCCNC4)c23)cn1` [Example E217, 4-[[(3R)-3-piperidyl]oxy]-3-pyrimidin-5-yl-1H-pyrrolo[2,3-b]pyridine], the results for the Ki at ROCK2, at ROCK1 and at MRCKβ were 77.5 nM, 114 nM and 4.01 nM, respectively.
For `c1ncc(-c2c[nH]c3nccc(OCC4CCCNC4)c23)cn1` (stereo not drawn) [Example E220, 4-(3-piperidylmethoxy)-3-pyrimidin-5-yl-1H-pyrrolo[2,3-b]pyridine], the inhibitory constant (Ki) turned out to be 40.7 nM on ROCK2, 34 nM on ROCK1 and 1.07 nM at MRCKβ.
As for `c1ncc(-c2c[nH]c3nccc(OC4CCNCC4)c23)cn1` [Example E223, 4-(4-piperidyloxy)-3-pyrimidin-5-yl-1H-pyrrolo[2,3-b]pyridine], the Ki was 108 nM on ROCK2, 153 nM on ROCK1 and 5.84 nM on MRCKβ.
Turning to `CN1CC[C@H](COc2ccnc3[nH]cc(-c4cncnc4)c23)C1` [Example E225, 4-[[(3S)-1-methylpyrrolidin-3-yl]methoxy]-3-pyrimidin-5-yl-1H-pyrrolo[2,3-b]pyridine], the Ki turned out to be 140 nM at ROCK2, 190 nM at ROCK1 and 11.4 nM at MRCKβ.
The like results for `CN1CCC[C@H](COc2ccnc3[nH]cc(-c4cncnc4)c23)C1` [Example E226, 3-pyrimidin-5-yl-4-[[(3S)-1-methyl-3-piperidyl]methoxy]-1H-pyrrolo[2,3-b]pyridine] were, in that order, 111 nM, 150 nM and 5 nM.
For `NCCC1CCN(c2ccnc3[nH]cc(-c4cncnc4)c23)CC1` [Example E238] the same measures were 18.4 nM, 14.2 nM and 1.02 nM.
For `c1ncc(-c2c[nH]c3nccc(NCC4CCCNC4)c23)cn1` (stereo not drawn) [Example E239], the Ki at ROCK2 amounted to 93.3 nM; at ROCK1 it was 103 nM; on MRCKβ it was 7.85 nM.
For `N#Cc1c[nH]c2nccc(N3CCC3)c12` [Example E240] the same measures were 21.6 nM, 38.7 nM and 8.31 nM.
`Cn1cc(-c2c[nH]c3nccc(N4CCC[C@](N)(N5CCC(N)CC5)C4)c23)cn1` [Example E241]: the Ki at ROCK2 was 224 nM; on ROCK1, 543 nM; at MRCKβ it was 11.9 nM.
The like results for `c1ncc(-c2c[nH]c3nccc(NC4CCCNC4)c23)cn1` (stereo not drawn) [Example E242] were, in that order, 165 nM, 217 nM and 19.3 nM.
